Source: ChEMBL document CHEMBL4316596, “Antimicrobial Peptides with High Proteolytic Resistance for Combating Gram-Negative Bacteria” (J Med Chem, 2019)

How the values were obtained:
Escherichia coli [1] = experiment: Antimicrobial activity against Escherichia coli ATCC 25922 after 24 hrs by NCCLS-protocol based assay; assay type: functional; settings: ATCC 25922, 24 h
Escherichia coli [2] = experiment: Bactericidal activity against Escherichia coli ATCC 25922 incubated for 4 hrs followed by culture spread on agar plates and cultured overnight in presence of 50% serum albumin; assay type: functional; settings: ATCC 25922, 4 h, read-out: MBC>99.9
Escherichia coli [3] = experiment: Antimicrobial activity against Escherichia coli 078 after 24 hrs by NCCLS-protocol based assay; assay type: functional; settings: Escherichia coli, 078, 24 h
Escherichia coli [4] = experiment: Bactericidal activity against Escherichia coli K99 incubated for 4 hrs followed by culture spread on agar plates and cultured overnight; assay type: functional; settings: K99, 4 h, read-out: MBC>99.9
Escherichia coli [5] = experiment: Bactericidal activity against Escherichia coli UB1005 incubated for 4 hrs followed by culture spread on agar plates and cultured overnight; assay type: functional; settings: UB1005, 4 h, read-out: MBC>99.9
Escherichia coli [6] = experiment: Bactericidal activity against Escherichia coli K88 incubated for 4 hrs followed by culture spread on agar plates and cultured overnight; assay type: functional; settings: K88, 4 h, read-out: MBC>99.9
Salmonella typhimurium [7] = experiment: Bactericidal activity against Salmonella typhimurium ATCC 14028 incubated for 4 hrs followed by culture spread on agar plates and cultured overnight; assay type: functional, Salmonella enterica subsp. enterica serovar Typhimurium; settings: Salmonella enterica, ATCC 14028, 4 h; read-out: MBC>99.9
Pseudomonas aeruginosa [8] = experiment: Bactericidal activity against Pseudomonas aeruginosa 26305 clinical isolates incubated for 4 hrs followed by culture spread on agar plates and cultured overnight; assay type: functional; settings: Pseudomonas aeruginosa, 26305, 4 h; read-out: MBC>99.9
Escherichia coli [9] = experiment: Bactericidal activity against Escherichia coli ATCC 25922 incubated for 4 hrs followed by culture spread on agar plates and cultured overnight in presence of NaCl; assay type: functional; settings: ATCC 25922, 4 h, read-out: MBC>99.9
Pseudomonas aeruginosa [10] = experiment: Antimicrobial activity against Pseudomonas aeruginosa 25349 clinical isolates after 24 hrs by NCCLS-protocol based assay; assay type: functional; settings: Pseudomonas aeruginosa, 25349, 24 h
Pseudomonas aeruginosa [11] = experiment: Bactericidal activity against Pseudomonas aeruginosa PAO1 incubated for 4 hrs followed by culture spread on agar plates and cultured overnight; assay type: functional; settings: PAO1, 4 h, read-out: MBC>99.9
[12] = Bactericidal activity against Salmonella pullorum C7913 incubated for 4 hrs followed by culture spread on agar plates and cultured overnight; assay type: functional, Salmonella enterica subsp. enterica serovar Pullorum; settings: Salmonella enterica, C7913, 4 h; read-out: MBC>99.9
Escherichia coli [13] = experiment: Antimicrobial activity against Escherichia coli UB1005 after 24 hrs by NCCLS-protocol based assay; assay type: functional; settings: UB1005, 24 h
[14] = Antimicrobial activity against Salmonella pullorum C7913 after 24 hrs by NCCLS-protocol based assay; assay type: functional, Salmonella enterica subsp. enterica serovar Pullorum; settings: Salmonella enterica, C7913, 24 h
Escherichia coli [15] = experiment: Antimicrobial activity against Escherichia coli K99 after 24 hrs by NCCLS-protocol based assay; assay type: functional; settings: K99, 24 h
Pseudomonas aeruginosa [16] = experiment: Bactericidal activity against Pseudomonas aeruginosa ATCC 27853 incubated for 4 hrs followed by culture spread on agar plates and cultured overnight; assay type: functional; settings: ATCC 27853, 4 h, read-out: MBC>99.9
Escherichia coli [17] = experiment: Bactericidal activity against Escherichia coli ATCC 25922 incubated for 4 hrs followed by culture spread on agar plates and cultured overnight in presence of 25% serum albumin; assay type: functional; settings: ATCC 25922, 4 h, read-out: MBC>99.9
Klebsiella pneumoniae [18] = experiment: Antimicrobial activity against Klebsiella pneumoniae after 24 hrs by NCCLS-protocol based assay; assay type: functional
Pseudomonas aeruginosa [19] = experiment: Antimicrobial activity against Pseudomonas aeruginosa PAO1 after 24 hrs by NCCLS-protocol based assay; assay type: functional; settings: PAO1, 24 h
Pseudomonas aeruginosa [20] = experiment: Bactericidal activity against Pseudomonas aeruginosa CICC 21630 clinical isolates incubated for 4 hrs followed by culture spread on agar plates and cultured overnight; assay type: functional; settings: CICC 21630, 4 h, read-out: MBC>99.9
Pseudomonas aeruginosa [21] = experiment: Antimicrobial activity against Pseudomonas aeruginosa CICC 21625 clinical isolates after 24 hrs by NCCLS-protocol based assay; assay type: functional; settings: CICC 21625, 24 h
Klebsiella pneumoniae [22] = experiment: Bactericidal activity against Klebsiella pneumoniae incubated for 4 hrs followed by culture spread on agar plates and cultured overnight; assay type: functional; settings: read-out: MBC>99.9
Pseudomonas aeruginosa [23] = experiment: Antimicrobial activity against Pseudomonas aeruginosa CICC 21630 clinical isolates after 24 hrs by NCCLS-protocol based assay; assay type: functional; settings: CICC 21630, 24 h
Escherichia coli [24] = experiment: Bactericidal activity against Escherichia coli ATCC 25922 incubated for 4 hrs followed by culture spread on agar plates and cultured overnight in presence of 12.5% serum albumin; assay type: functional; settings: ATCC 25922, 4 h, read-out: MBC>99.9
Pseudomonas aeruginosa [25] = experiment: Antimicrobial activity against Pseudomonas aeruginosa ATCC 27853 after 24 hrs by NCCLS-protocol based assay; assay type: functional; settings: ATCC 27853, 24 h
Escherichia coli [26] = experiment: Bactericidal activity against Escherichia coli ATCC 25922 incubated for 4 hrs followed by culture spread on agar plates and cultured overnight in presence of CaCl2; assay type: functional; settings: ATCC 25922, 4 h, read-out: MBC>99.9
Pseudomonas aeruginosa [27] = experiment: Bactericidal activity against Pseudomonas aeruginosa 25349 clinical isolates incubated for 4 hrs followed by culture spread on agar plates and cultured overnight; assay type: functional; settings: Pseudomonas aeruginosa, 25349, 4 h; read-out: MBC>99.9
Escherichia coli [28] = experiment: Bactericidal activity against Escherichia coli ATCC 25922 incubated for 4 hrs followed by culture spread on agar plates and cultured overnight in presence of NH4Cl; assay type: functional; settings: ATCC 25922, 4 h, read-out: MBC>99.9
Pseudomonas aeruginosa [29] = experiment: Bactericidal activity against Pseudomonas aeruginosa CICC 21625 clinical isolates incubated for 4 hrs followed by culture spread on agar plates and cultured overnight; assay type: functional; settings: CICC 21625, 4 h, read-out: MBC>99.9
Salmonella typhimurium [30] = experiment: Antimicrobial activity against Salmonella typhimurium C7731 after 24 hrs by NCCLS-protocol based assay; assay type: functional, Salmonella enterica subsp. enterica serovar Typhimurium; settings: Salmonella enterica, C7731, 24 h
Pseudomonas aeruginosa [31] = experiment: Antimicrobial activity against Pseudomonas aeruginosa 26305 clinical isolates after 24 hrs by NCCLS-protocol based assay; assay type: functional; settings: Pseudomonas aeruginosa, 26305, 24 h
Escherichia coli [32] = experiment: Bactericidal activity against Escherichia coli 078 incubated for 4 hrs followed by culture spread on agar plates and cultured overnight; assay type: functional; settings: Escherichia coli, 078, 4 h; read-out: MBC>99.9
Salmonella typhimurium [33] = experiment: Antimicrobial activity against Salmonella typhimurium ATCC 14028 after 24 hrs by NCCLS-protocol based assay; assay type: functional, Salmonella enterica subsp. enterica serovar Typhimurium; settings: Salmonella enterica, ATCC 14028, 24 h
Escherichia coli [34] = experiment: Bactericidal activity against Escherichia coli ATCC 25922 incubated for 4 hrs followed by culture spread on agar plates and cultured overnight in presence of MgCl2; assay type: functional; settings: ATCC 25922, 4 h, read-out: MBC>99.9
Acinetobacter baumannii [35] = experiment: Bactericidal activity against Acinetobacter baumannii incubated for 4 hrs followed by culture spread on agar plates and cultured overnight; assay type: functional; settings: read-out: MBC>99.9
Escherichia coli [36] = experiment: Antimicrobial activity against Escherichia coli K88 after 24 hrs by NCCLS-protocol based assay; assay type: functional; settings: K88, 24 h
Escherichia coli [37] = experiment: Bactericidal activity against Escherichia coli ATCC 25922 incubated for 4 hrs followed by culture spread on agar plates and cultured overnight; assay type: functional; settings: ATCC 25922, 4 h, read-out: MBC>99.9
Escherichia coli [38] = experiment: Bactericidal activity against Escherichia coli ATCC 25922 incubated for 4 hrs followed by culture spread on agar plates and cultured overnight in presence of FeCl3; assay type: functional; settings: ATCC 25922, 4 h, read-out: MBC>99.9
Acinetobacter baumannii [39] = experiment: Antimicrobial activity against Acinetobacter baumannii after 24 hrs by NCCLS-protocol based assay; assay type: functional
Escherichia coli [40] = experiment: Bactericidal activity against Escherichia coli ATCC 25922 incubated for 4 hrs followed by culture spread on agar plates and cultured overnight in presence of KCl; assay type: functional; settings: ATCC 25922, 4 h, read-out: MBC>99.9
Salmonella typhimurium [41] = experiment: Bactericidal activity against Salmonella typhimurium C7731 incubated for 4 hrs followed by culture spread on agar plates and cultured overnight; assay type: functional, Salmonella enterica subsp. enterica serovar Typhimurium; settings: Salmonella enterica, C7731, 4 h; read-out: MBC>99.9
Escherichia coli [42] = experiment: Bactericidal activity against Escherichia coli ATCC 25922 incubated for 4 hrs followed by culture spread on agar plates and cultured overnight in presence of ZnCl2; assay type: functional; settings: ATCC 25922, 4 h, read-out: MBC>99.9

MIC95 (Escherichia coli [1]): 1 µM
MIC95 (Escherichia coli [3]): 2 µM
MIC95 (Pseudomonas aeruginosa [10]): 32 µM
MIC95 (Escherichia coli [13]): 2 µM
MIC95 [14]: 4 µM
MIC95 (Escherichia coli [15]): 2 µM
MIC95 (Klebsiella pneumoniae [18]): 8 µM
MIC95 (Pseudomonas aeruginosa [19]): 4 µM
MIC95 (Pseudomonas aeruginosa [21]): 64 µM
MIC95 (Pseudomonas aeruginosa [23]): 32 µM
MIC95 (Pseudomonas aeruginosa [25]): 4 µM
MIC95 (Salmonella typhimurium [30]): 8 µM
MIC95 (Pseudomonas aeruginosa [31]): 64 µM
MIC95 (Salmonella typhimurium [33]): 4 µM
MIC95 (Escherichia coli [36]): 1 µM
MIC95 (Acinetobacter baumannii [39]): 4 µM
Substance: H-LKPLLKPLLKPLLKPLLKPLLKPL-NH2
MBC (Escherichia coli [2]): > 128 µM
MBC (Escherichia coli [4]): 2 µM
MBC (Escherichia coli [5]): 4 µM
MBC (Escherichia coli [6]): 2 µM
MBC (Salmonella typhimurium [7]): 8 µM
MBC (Pseudomonas aeruginosa [8]): > 64 µM
MBC (Escherichia coli [9]): 16 µM
MBC (Pseudomonas aeruginosa [11]): 8 µM
MBC [12]: 8 µM
MBC (Pseudomonas aeruginosa [16]): 4 µM
MBC (Escherichia coli [17]): > 128 µM
MBC (Pseudomonas aeruginosa [20]): 64 µM
MBC (Klebsiella pneumoniae [22]): 8 µM
MBC (Escherichia coli [24]): 8 µM
MBC (Escherichia coli [26]): > 128 µM
MBC (Pseudomonas aeruginosa [27]): 32 µM
MBC (Escherichia coli [28]): 4 µM
MBC (Pseudomonas aeruginosa [29]): 64 µM
MBC (Escherichia coli [32]): 2 µM
MBC (Escherichia coli [34]): 16 µM
MBC (Acinetobacter baumannii [35]): 4 µM
MBC (Escherichia coli [37]): 2 µM
MBC (Escherichia coli [38]): 4 µM
MBC (Escherichia coli [40]): 1 µM
MBC (Salmonella typhimurium [41]): 8 µM
MBC (Escherichia coli [42]): 2 µM
